Assay results published in EP0686628A2, “Prostaglandin F esters” (ONO PHARMACEUTICAL CO., LTD., priority 1994, dated 1995).

Tests used:
intraocular pressure [1] = experiment: Experiment 2: ocular hypotensive effect (Δ IOP) after instillation of a 0.02% solution, comparison with compared compounds; assay type: in vivo, Male Japanese White rabbits; conditions: rabbit; for Ocular Hypotensive Effects on Intraocular Pressure (Δ IOP), Time after Administration 0 hr.: 0 hr. after administration (baseline); for Ocular Hypotensive Effects on Intraocular Pressure (Δ IOP), Time after Administration 1 hr.: 1 hr. after administration; for Ocular Hypotensive Effects on Intraocular Pressure (Δ IOP), Time after Administration 2 hr.: 2 hr. after administration; for Ocular Hypotensive Effects on Intraocular Pressure (Δ IOP), Time after Administration 4 hr.: 4 hr. after administration; for Ocular Hypotensive Effects on Intraocular Pressure (Δ IOP), Time after Administration 6 hr.: 6 hr. after administration; for initial elevation of the intraocular pressure: side effect
Procedure: (§1) Male Japanese White rabbits weighing about 3.0 kg were lightly held and the intraocular pressure was measured by Applanation Pneumatonograph after corneal anesthesia with instillation of 0.4% oxybuprocaine hydrochloride solution.
(§2) A test compound was dissolved at 0.1% in vehicle which contains 2.5% glycerol and 2.0% polysorbate 80 in sterile purified water. The test solution at volume of […] was instilled into the left eye of each rabbit and the right eye remained untreated. As a control, the vehicle was instilled into the left eye in a control group. Δ IOP (mmHg), which is an index of ocular hypotensive effect, were calculated using below formula. Δ IOP = (IOPt - IOP0) - (IOPvt - IOPv0) [formula] IOPt : IOP at t hr. after instillation of a test solution IOPvt : IOP at t hr. after instillation of vehicle IOP0 : IOP just before instillation of a test solution IOPv0 : IOP just before instillation of vehicle
Further, the compounds of the present invention were compared with the compounds shown concretely in related arts hereinbefore described. The compounds have chemical structures quite similar to the compounds of the present invention were selected as compared compounds. 0.02% solutions of the compounds of the present invention were compared with the compared compounds, because the 0.02% solution is close to concentration used actually.
The compounds of the present invention and compared compounds were dissolved in vehicle at 0.02%, and Δ IOPs (mmHg) after instillation of these solution, which are the index of ocular hypotensive effects, were calculated in the same way as the experiment 1.
The graphs of the results shown in the Table 1 and Table 2 were Figure 1 and Figure 2.

intraocular pressure [2] = experiment: Experiment 1: ocular hypotensive effect (Δ IOP) after instillation of a 0.1% solution into the rabbit eye; assay type: in vivo, Male Japanese White rabbits; conditions: 0.1% solution instilled into left eye, vehicle-corrected, mean of three or four samples
Procedure: as §1, §2
For example, the maximum reduction of IOP after instillation of the compounds shown as examples 1, 1(a), 1(b), 2, 3, 4 and 5 hereinafter were 6.0, 5.7, 5.4, 4.0, 4.7, 6.7 and 9.8 mmHg, respectively. And when the compound of the present invention was instilled, bulbar and palpebral conjunctival hyperemia could hardly be observed.

Compound | time after administration at which the ocular hypotensive effect appeared (intraocular pressure [1]) [h] | Ocular Hypotensive Effects on Intraocular Pressure (Δ IOP), Time after Administration 0 hr. (intraocular pressure [1]) [mmHg] | Ocular Hypotensive Effects on Intraocular Pressure (Δ IOP), Time after Administration 1 hr. (intraocular pressure [1]) [mmHg] | Ocular Hypotensive Effects on Intraocular Pressure (Δ IOP), Time after Administration 2 hr. (intraocular pressure [1]) [mmHg] | Ocular Hypotensive Effects on Intraocular Pressure (Δ IOP), Time after Administration 4 hr. (intraocular pressure [1]) [mmHg] | Ocular Hypotensive Effects on Intraocular Pressure (Δ IOP), Time after Administration 6 hr. (intraocular pressure [1]) [mmHg] | initial elevation of the intraocular pressure (intraocular pressure [1]) | maximum reduction of IOP after instillation (intraocular pressure [2]) [mmHg] | time after administration for which the activity was maintained (intraocular pressure [1]) [h] | activity (reduction of intraocular pressure) reached at 4 hrs. after administration (intraocular pressure [1]; 4 hrs. after administration, printed as magnitude) [mmHg] | duration of the initial elevation of intraocular pressure (intraocular pressure [1]) [h]
CCCCC[C@H](O)CC[C@@H]1[C@@H](C/C=C\CCCC(=O)OC2CCCCC2)[C@@H](O)C[C@H]1O [Compared compound 1, 13,14-dihydro-PGF2α cyclohexyl ester, reference compound] | 4 | 0 | 11.3 | 2.3 | -5.6 | -9.3 | showed extremely strong initial elevation | – | – | – | –
CCCCC[C@H](O)CC[C@@H]1[C@@H](C/C=C\CCCC(=O)OCc2ccccc2)[C@H](O)C[C@H]1O [Example 1(b), 13,14-dihydro-PGF2β benzyl ester] | – | – | – | – | – | – | – | 5.4 | – | – | –
CCCCC[C@H](O)CC[C@@H]1[C@@H](C/C=C\CCCC(=O)OC2CCCCC2)[C@H](O)C[C@H]1O [Example 1, 13,14-dihydro-PGF2β cyclohexyl ester] | 1 | 0 | -2.0 | -2.3 | -6.6 | -1.8 | did not show initial elevation | 6.0 | 6 | 6.6 | –
CCCCC(C)(C)[C@H](O)/C=C/[C@@H]1[C@@H](C/C=C\CCCC(=O)OCC)[C@H](O)C[C@H]1O [Example 5, 16,16-dimethyl-PGF2β ethyl ester] | 1 | 0 | -2.0 | -3.5 | -7.3 | -7.3 | did not show initial elevation | 9.8 | 6 | – | –
CCCCC(C)(C)[C@H](O)/C=C/[C@@H]1[C@@H](C/C=C\CCCC(=O)OC(C)C)[C@@H](O)C[C@H]1O [Example 3, 16,16-dimethyl-PGF2α isopropyl ester] | – | – | – | – | – | – | – | 4.7 | – | – | –
CCCCC(C)(C)[C@H](O)/C=C/[C@@H]1[C@@H](C/C=C\CCCC(=O)OC(C)C)[C@H](O)C[C@H]1O [Example 4, 16,16-dimethyl-PGF2β isopropyl ester] | 1 | 0 | -5.0 | -5.0 | -12.3 | -9.6 | did not show initial elevation | 6.7 | 6 | – | –
CCCCC(C)(C)[C@H](O)CC[C@@H]1[C@@H](C/C=C\CCCC(=O)OC(C)C)[C@@H](O)C[C@H]1O [Example 2, 16,16-dimethyl-13,14-dihydro-PGF2α isopropyl ester] | – | – | – | – | – | – | – | 4.0 | – | – | –
CCCCC[C@H](O)CC[C@@H]1[C@@H](C/C=C\CCCC(=O)Oc2ccccc2)[C@H](O)C[C@H]1O [Example 1(a), 13,14-dihydro-PGF2β phenyl ester] | – | – | – | – | – | – | – | 5.7 | – | – | –
CCCCC(C)(C)[C@H](O)/C=C/[C@@H]1[C@@H](C/C=C\CCCC(=O)O)[C@@H](O)C[C@H]1O [Compared compound 2, 16,16-dimethyl-PGF2α, reference compound] | 4 | 0 | 4.5 | 4.5 | -2.0 | -0.8 | showed initial elevation | – | – | – | 4
